Like-named read-outs stand apart in the source and are kept apart here. Starred links: 1 amine or outer side, 2 acyl side, 3 side chain; linkers in the order of their positions; H or OH if unused. Non-standard residues stand in square brackets, D forms with d. Residues, ends and D or L forms follow the SMILES beside them. Groups on a side chain read outwards from the residue. *: point of attachment. C20 diacid = O=C(O)CCCCCCCCCCCCCCCCCCC(=O)*; C18 diacid = O=C(O)CCCCCCCCCCCCCCCCC(=O)*; Dip = N[C@H](C(=O)O)C(c1ccccc1)c1ccccc1; γGlu = O=C(O)[C@H](CCC(=O)[*:2])N[*:1]; αMeF = C[C@](N)(Cc1ccccc1)C(=O)O; Myristoyl = CCCCCCCCCCCCCC(=O)*; PEG2 = NCCOCCOCCC(=O)O; AEEA = NCCOCCOCC(=O)O; Aib = CC(C)(N)C(=O)O
Tests used:
[1] = Mouse acute food intake study; type: in vivo; conditions: male C57Bl/6 mice, s.c., cumulative food intake at 24 hr vs vehicle
Summary of the method: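 Peptide or vehicle went subcutaneously (5 mL/kg) to 6-8 h-fasted male C57Bl/6 mice shortly before the dark phase, with groups balanced on body weight and 24-hour intake. Cumulative food consumption was derived from 48 h of automated BioDaq monitoring with free food and water access.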

[2] = tested on: GLP-1R knockout (KO) mice; test: Glucose change in GLP-1R knockout mice; type: in vivo, mouse; conditions: GLP-1R KO mice, s.c.; for GLP-1R KO % glucose change 120 min: 120 min vs 0 min; for GLP-1R KO % glucose change - 60 min: 60 min vs 0 min
Procedure: (§1) They acclimated for a minimum of ˜1-2 weeks, and mice were sorted into groups (n=4-8/group) based on body weight. On day of study, mice were fasted briefly for 2 hrs prior to study start. In some studies, mice were pre-treated with octreotide (BaChem, 10 mg/kg) at 30 minutes prior to peptide injection. Glucose was measured via glucometer at various timepoints including-30 min (prior to octreotide when used in studies), 0 min (before peptide dose), 30, 60, 120, 180, 240, and 360 minutes. Since these studies are acute in nature, mice were re-used for multiple studies (no more than 3) and always allowed at least a minimum wash-out period of 1 week.

wildtype (WT) mice = test: Glucose change in wildtype mice; type: in vivo, mouse; conditions: s.c.; for WT % glucose change 120 min: 120 min vs 0 min; for WT % glucose change 60 min: 60 min vs 0 min
Procedure: as §1, with “GLP-1R knockout (KO) and wildtype (WT) mice at 8-14 weeks of age were singly housed on standard chow diet (Envigo, 2918) and automatic water. They” for “They”

[3] = molecular target: human GLP-1 receptor (hGLP-1R) (Homo sapiens, UniProt P43220); test: cAMP production (HTRF) in CHO cells expressing hGLP-1R; type: cell-based; set-up: expressed in transfected cells; conditions: for EC50: cAMP in CHO hGLP-1R cells, geometric mean, read-out: hGLP-1R EC50; for % Relative Potency Ratio: % GLP-1R activity relative to GLP-1 / % GlucR activity relative to glucagon
Chain of human GLP-1 receptor (hGLP-1R) (P43220 24-463): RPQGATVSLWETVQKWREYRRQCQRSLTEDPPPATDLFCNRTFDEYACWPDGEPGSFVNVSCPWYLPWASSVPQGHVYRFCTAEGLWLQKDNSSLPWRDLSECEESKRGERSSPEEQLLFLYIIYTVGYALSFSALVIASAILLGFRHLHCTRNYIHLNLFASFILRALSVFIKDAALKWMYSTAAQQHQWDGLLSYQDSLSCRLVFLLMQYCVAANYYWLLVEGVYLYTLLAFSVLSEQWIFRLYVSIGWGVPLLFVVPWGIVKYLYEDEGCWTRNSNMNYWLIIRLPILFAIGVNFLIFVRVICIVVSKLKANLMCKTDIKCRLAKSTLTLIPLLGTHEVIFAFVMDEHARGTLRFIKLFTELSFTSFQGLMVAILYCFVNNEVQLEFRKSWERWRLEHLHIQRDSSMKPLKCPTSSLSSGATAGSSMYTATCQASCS
Summary of the method: (§2)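 Read-out: HTRF cAMP (anti-cAMP cryptate donor, cAMP-d2 acceptor in conjugate/lysis buffer), converted to % Delta F and fitted by 4-parameter logistic for EC50. Cell densities were 1×10^5 cells/mL (hGLP-1R) or 2×10^5 cells/mL (hGCGR). Stimulation lasted 30 min at room temperature.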

[4] = molecular target: human glucagon receptor (hGCGR) (Homo sapiens, UniProt P47871); test: cAMP production (HTRF) in CHO cells expressing hGCGR; type: cell-based; set-up: expressed in transfected cells; conditions: cAMP in CHO hGCGR cells, geometric mean, read-out: hGluc-R EC50
Chain of human glucagon receptor (hGCGR) (P47871 26-477): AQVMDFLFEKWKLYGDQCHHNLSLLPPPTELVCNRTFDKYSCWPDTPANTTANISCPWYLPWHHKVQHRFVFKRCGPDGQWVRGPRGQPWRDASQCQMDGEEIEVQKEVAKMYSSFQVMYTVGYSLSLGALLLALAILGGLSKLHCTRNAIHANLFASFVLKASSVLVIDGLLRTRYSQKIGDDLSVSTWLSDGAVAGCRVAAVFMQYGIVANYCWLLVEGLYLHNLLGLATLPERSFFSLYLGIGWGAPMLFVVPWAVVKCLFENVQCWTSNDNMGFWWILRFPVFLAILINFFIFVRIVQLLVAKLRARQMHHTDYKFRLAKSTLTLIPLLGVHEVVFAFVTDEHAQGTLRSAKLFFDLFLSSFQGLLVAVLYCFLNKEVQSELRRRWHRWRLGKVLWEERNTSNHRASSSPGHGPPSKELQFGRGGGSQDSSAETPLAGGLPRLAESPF
Summary of the method: as §2

[5] = 10 nmol/kg, somatostatin pretreatment (octreotide) 30 min prior to cpd
[6] = 30 nmol/kg, somatostatin pretreatment (octreotide) 30 min prior to cpd
[7] = Table 6, peptides modified at position 17
[8] = Table 7, peptides modified at position 20
[9] = 10 nmol/kg, no somatostatin pretreatment
[10] = 30 nmol/kg, no somatostatin pretreatment

EC50 [3, 7]	% Relative Potency Ratio ([3]; Table 6)	EC50 [4, 7]	EC50 [3, 8]	% Relative Potency Ratio ([3]; Table 7)	EC50 [4, 8]	SMILES	24 hr % Vehicle Food Intake ([1]; dose 10 nmol/kg)	GLP-1R KO % glucose change 120 min [2, 5]	GLP-1R KO % glucose change 120 min [2, 6]	WT % glucose change 120 min (wildtype (WT) mice; [5])	WT % glucose change 120 min (wildtype (WT) mice; [6])	24 hr % Vehicle Food Intake ([1]; dose 3 nmol/kg)	GLP-1R KO % glucose change 120 min [2, 9]	GLP-1R KO % glucose change 120 min [2, 10]	WT % glucose change 120 min (wildtype (WT) mice; [9])	WT % glucose change 120 min (wildtype (WT) mice; [10])	GLP-1R KO % glucose change - 60 min [2, 9]	GLP-1R KO % glucose change - 60 min [2, 10]	WT % glucose change 60 min (wildtype (WT) mice; [9])	WT % glucose change 60 min (wildtype (WT) mice; [10])
0.00314 nM	1.6	0.00249 nM				CCCCCCCCCCCCCC(=O)N[C@@H](CCC(=O)N[C@@H](CCC(=O)NCCOCCOCCC(=O)NCCOCCOCCC(=O)NCCCC[C@H](NC(=O)[C@H](CO)NC(=O)[C@H](CC(=O)O)NC(=O)[C@H](CC(C)C)NC(=O)[C@@H](NC(=O)[C@H](CCCCN)NC(=O)[C@H](CO)NC(=O)[C@@H](NC(=O)[C@H](CC(=O)O)NC(=O)[C@H](CO)NC(=O)[C@@H](NC(=O)[C@](C)(Cc1ccccc1)NC(=O)[C@H](CO)NC(=O)CNC(=O)[C@H](CCC(N)=O)NC(=O)[C@H](CO)NC(=O)[C@@H](N)Cc1c[nH]cn1)[C@@H](C)O)C(C)C)C(c1ccccc1)c1ccccc1)C(=O)N[C@@H](C)C(=O)N[C@@H](C)C(=O)N[C@@H](CCC(N)=O)C(=O)N[C@@H](CC(=O)O)C(=O)N[C@@](C)(Cc1ccccc1)C(=O)N[C@H](C(=O)N[C@@H](CCC(=O)O)C(=O)NC(C)(C)C(=O)N[C@H](C(=O)N[C@H](C(=O)N[C@@H](CC(N)=O)C(=O)N[C@H](C(N)=O)[C@@H](C)O)[C@@H](C)CC)[C@@H](C)CC)C(C)C)C(=O)O)C(=O)O [Peptide 63] (H-HSQGS[αMeF]TSDVSK[Dip]LDSK([PEG2-PEG2-γGlu-γGlu-Myristoyl])AAQD[αMeF]VE[Aib]IINT-NH2; N-terminus assumed)	37.9%	68.2%	113.0%	−26.4%	−23.8%									
			0.0775 nM	0.9	0.0341 nM	CC[C@H](C)[C@H](NC(=O)[C@H](Cc1c[nH]c2ccccc12)NC(=O)[C@H](CCC(N)=O)NC(=O)[C@@H](NC(=O)[C@H](Cc1ccccc1)NC(=O)[C@H](CC(=O)O)NC(=O)[C@H](CCCCNC(=O)COCCOCCNC(=O)COCCOCCNC(=O)CC[C@H](NC(=O)CCCCCCCCCCCCCCCCC(=O)O)C(=O)O)NC(=O)[C@H](C)NC(=O)[C@H](C)NC(=O)[C@H](CCC(N)=O)NC(=O)[C@H](CO)NC(=O)[C@H](CC(=O)O)NC(=O)[C@H](CC(C)C)NC(=O)[C@](C)(Cc1ccccc1)NC(=O)[C@H](CCCCN)NC(=O)[C@H](CO)NC(=O)[C@@H](NC(=O)[C@H](CC(=O)O)NC(=O)[C@H](CO)NC(=O)[C@@H](NC(=O)[C@](C)(Cc1ccccc1)NC(=O)[C@H](CO)NC(=O)CNC(=O)[C@H](Cc1c[nH]cn1)NC(=O)C(C)(C)NC(=O)[C@@H](N)Cc1c[nH]cn1)[C@@H](C)O)C(C)C)C(C)C)C(=O)N[C@@H](C)C(=O)N[C@@H](CC(N)=O)C(=O)N[C@H](C(N)=O)[C@@H](C)O [Peptide 203] (H-H[Aib]HGS[αMeF]TSDVSK[αMeF]LDSQAAK([AEEA-AEEA-γGlu-C18 diacid])DFVQWIANT-NH2; N-terminus assumed)	81.4%	54.6%	106.9%	−29.5%	−36.5%									
			0.118 nM	2.5	0.148 nM	CC[C@H](C)[C@H](NC(=O)[C@H](Cc1c[nH]c2ccccc12)NC(=O)[C@H](CCC(N)=O)NC(=O)[C@@H](NC(=O)[C@H](Cc1ccccc1)NC(=O)[C@H](CC(=O)O)NC(=O)[C@H](CCCCNC(=O)COCCOCCNC(=O)COCCOCCNC(=O)CC[C@H](NC(=O)CC[C@H](NC(=O)CCCCCCCCCCCCCCCCCCC(=O)O)C(=O)O)C(=O)O)NC(=O)[C@H](C)NC(=O)[C@H](C)NC(=O)[C@H](CCCNC(=N)N)NC(=O)[C@H](CO)NC(=O)[C@H](CC(=O)O)NC(=O)[C@H](CC(C)C)NC(=O)[C@H](Cc1ccc(O)cc1)NC(=O)[C@H](CCCCN)NC(=O)[C@H](CO)NC(=O)[C@@H](NC(=O)[C@H](CC(=O)O)NC(=O)[C@H](CO)NC(=O)[C@@H](NC(=O)[C@](C)(Cc1ccccc1)NC(=O)[C@H](CO)NC(=O)CNC(=O)[C@H](Cc1c[nH]cn1)NC(=O)C(C)(C)NC(=O)[C@@H](N)Cc1c[nH]cn1)[C@@H](C)O)C(C)C)C(C)C)C(=O)N[C@@H](C)C(=O)N[C@@H](CC(N)=O)C(=O)N[C@H](C(N)=O)[C@@H](C)O [Peptide 289] (H-H[Aib]HGS[αMeF]TSDVSKYLDSRAAK([AEEA-AEEA-γGlu-γGlu-C20 diacid])DFVQWIANT-NH2)	49.6%					76.1%	8.9%	7.7%	−8.5%	−16.1%				
			0.0553 nM	1.1	0.0318 nM	CC[C@H](C)[C@H](NC(=O)C(C)(C)NC(=O)[C@H](C)NC(=O)[C@@H](NC(=O)[C@](C)(Cc1ccccc1)NC(=O)[C@H](CC(=O)O)NC(=O)[C@H](CCCCNC(=O)COCCOCCNC(=O)COCCOCCNC(=O)CC[C@H](NC(=O)CCCCCCCCCCCCCCCCC(=O)O)C(=O)O)NC(=O)[C@H](C)NC(=O)[C@H](C)NC(=O)[C@H](CCCNC(=N)N)NC(=O)[C@H](CO)NC(=O)[C@H](CC(=O)O)NC(=O)[C@H](CC(C)C)NC(=O)[C@](C)(Cc1ccccc1)NC(=O)[C@H](CCCCN)NC(=O)[C@H](CO)NC(=O)[C@@H](NC(=O)[C@H](CC(=O)O)NC(=O)[C@H](CO)NC(=O)[C@@H](NC(=O)[C@](C)(Cc1ccccc1)NC(=O)[C@H](CO)NC(=O)CNC(=O)[C@H](Cc1c[nH]cn1)NC(=O)C(C)(C)NC(=O)[C@@H](N)Cc1c[nH]cn1)[C@@H](C)O)C(C)C)[C@@H](C)CC)C(=O)N[C@@H](C)C(=O)N[C@@H](CCC(=O)O)C(=O)N[C@H](C(N)=O)[C@@H](C)O [Peptide 301] (H-H[Aib]HGS[αMeF]TSDVSK[αMeF]LDSRAAK([AEEA-AEEA-γGlu-C18 diacid])D[αMeF]IA[Aib]IAET-NH2; N-terminus assumed)	54.9%										29.1%	17.9%	−43%	−35.7%
